Test results as given in PubChem BioAssay AID192 (DTP/NCI, 2004).
Several values for one entry are separate records, joined by “and”; a condition that tells them apart may be missing. Equal entries are not always repeated. Toxic doses and inconclusive results are not listed. Numbered stars: 1 amine (or outer) side, 2 acyl side, 3 side chain; on linkers, the order of the positions; unused ones are H or OH. Bridge positions count the residues as written; N and C are the ends. Square brackets hold non-standard residues; d marks the D form. Peptide text beside a SMILES is read from it. I, II: the chains in the order shown. Actinocin(9to1) = Cc1c2oc3c(C)ccc(C(=O)[*:1])c3nc-2c(C(=O)[*:2])c(N)c1=O; NMeV = CN[CH](C(=O)O)C(C)C; Sar = CNCC(=O)O

Tested on: BDF1 mice, B16 melanoma ip, median survival T/C
Assay: NCI In Vivo Anticancer Drug Screen. Data for tumor model B16 Melanoma (intraperitoneal) in B6D2F1 (BDF1) mice
Settings: endpoint: median survival time, higher = longer survival
Summary of the method: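 Mice with transplantable tumors; drug vs vehicle groups; endpoint survival or tumor size; value = T/C.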

[1] = dose: 25.0 mg/kg/injection, schedule: Q01DX009 (ip), vehicle: Klucel (hydroxypropylcellulose) (HPC)
[2] = dose: 50.0 mg/kg/injection, schedule: Q01DX009 (ip), vehicle: Klucel (hydroxypropylcellulose) (HPC)
[3] = dose: 100.0 mg/kg/injection, schedule: Q01DX009 (ip), vehicle: Klucel (hydroxypropylcellulose) (HPC)
[4] = dose: 25.0 mg/kg/injection, schedule: Q01DX009 (ip), vehicle: saline with Tween-80
[5] = dose: 50.0 mg/kg/injection, schedule: Q01DX009 (ip), vehicle: saline with Tween-80
[6] = dose: 100.0 mg/kg/injection, schedule: Q01DX009 (ip), vehicle: saline with Tween-80
[7] = dose: 200.0 mg/kg/injection, schedule: Q01DX009 (ip), vehicle: saline with Tween-80
[8] = dose: 400.0 mg/kg/injection, schedule: Q01DX009 (ip), vehicle: saline with Tween-80
[9] = dose: 6.25 mg/kg/injection, schedule: Q01DX009 (ip), vehicle: Klucel (hydroxypropylcellulose) (HPC)
[10] = dose: 12.5 mg/kg/injection, schedule: Q01DX009 (ip), vehicle: Klucel (hydroxypropylcellulose) (HPC)
[11] = dose: 200.0 mg/kg/injection, schedule: Q01DX009 (ip), vehicle: Klucel (hydroxypropylcellulose) (HPC)
[12] = dose: 6.0 mg/kg/injection, schedule: Q01DX009 (ip), vehicle: saline
[13] = dose: 6.25 mg/kg/injection, schedule: Q01DX009 (ip), vehicle: saline

SMILES: COc1cc(O)c2c(c1)C(=O)c1cc3c(c(O)c1C2=O)C(O)C(OC)C(C)(O)C3=O (configuration not stated)
- T/C [1]: 95 % of control
- T/C [2]: 88 % of control

SMILES: CN1c2c(nc(N)[nH]c2=O)NCC1CCNc1ccc(C(=O)NC(CCC(=O)O)C(=O)O)cc1 (configuration not stated)
- T/C [1]: 106 % of control
- T/C [2]: 103 % of control
- T/C (dose: 50.0 mg/kg/injection, schedule: Q01DX009 (ip), vehicle: sodium bicarbonate): 100 % of control
- T/C [3]: 106 % of control
- T/C (dose: 100.0 mg/kg/injection, schedule: Q01DX009 (ip), vehicle: sodium bicarbonate): 100 % of control
- T/C (dose: 200.0 mg/kg/injection, schedule: Q01DX009 (ip), vehicle: sodium bicarbonate): 95 % of control
- T/C (dose: 400.0 mg/kg/injection, schedule: Q01DX009 (ip), vehicle: sodium bicarbonate): 118 % of control

SMILES: O=C(CCCc1ccc(N(CCCl)CCCl)cc1)Nc1ncccn1
- T/C (dose: 3.0 mg/kg/injection, schedule: Q01DX009 (ip), vehicle: Klucel (hydroxypropylcellulose) (HPC)): 104 % of control
- T/C (dose: 6.0 mg/kg/injection, schedule: Q01DX009 (ip), vehicle: Klucel (hydroxypropylcellulose) (HPC)): 109 % of control
- T/C (dose: 12.0 mg/kg/injection, schedule: Q01DX009 (ip), vehicle: Klucel (hydroxypropylcellulose) (HPC)): 109 % of control

SMILES: C[n+]1c(-c2cccc3ccccc23)c2cc(N)ccc2c2ccccc21
- T/C (dose: 1.56 mg/kg/injection, schedule: Q01DX009 (ip), vehicle: water): 114 % of control
- T/C (dose: 3.12 mg/kg/injection, schedule: Q01DX009 (ip), vehicle: water): 106 % of control
- T/C (dose: 6.25 mg/kg/injection, schedule: Q01DX009 (ip), vehicle: water): 124 % of control
- T/C (dose: 12.5 mg/kg/injection, schedule: Q01DX009 (ip), vehicle: water): 94 % of control

SMILES: NS(=O)(=O)OCCCCCCCOS(N)(=O)=O
- T/C [4]: 150 % of control
- T/C [5]: 181 % of control

SMILES: CCCCNC(=O)Nc1c(C)cccc1C
- T/C (dose: 100.0 mg/kg/injection, schedule: Q01DX009 (ip), vehicle: gum acacia): 95 % of control
- T/C (dose: 200.0 mg/kg/injection, schedule: Q01DX009 (ip), vehicle: gum acacia): 94 % of control

SMILES: CCC(C)C(NC=O)C(=O)O (configuration not stated)
- T/C [5]: 97 % of control
- T/C [6]: 95 % of control
- T/C [7]: 92 % of control
- T/C [8]: 91 % of control

SMILES: C=C(Cl)C(=NC(C)(C)C)Nc1ccccc1C
- T/C (dose: 3.12 mg/kg/injection, schedule: Q01DX009 (ip), vehicle: Klucel (hydroxypropylcellulose) (HPC)): 99 % of control
- T/C [9]: 86 % of control
- T/C [10]: 92 % of control
- T/C [1]: 102 % of control

SMILES: CCCCCCCCCC(=O)CC
- T/C [2]: 100 % of control
- T/C [3]: 99 % of control
- T/C [11]: 100 % of control

SMILES: CCOC(=O)C(=CN1CCCC1)C(=O)OCC
- T/C [6]: 102 % of control
- T/C (dose: 100.0 mg/kg/injection, schedule: Q04DX003 (ip), vehicle: saline with Tween-80): 120 % of control
- T/C [7]: 105 % of control
- T/C (dose: 200.0 mg/kg/injection, schedule: Q04DX003 (ip), vehicle: saline with Tween-80): 117 % of control
- T/C [8]: 91 % of control
- T/C (dose: 400.0 mg/kg/injection, schedule: Q04DX003 (ip), vehicle: saline with Tween-80): 111 % of control

SMILES: CC(=O)NC1c2cc(Cl)ccc2-c2c(Cl)cc(Cl)cc21 (configuration not stated)
- T/C [6]: 100 % of control
- T/C [8]: 95 % of control
- T/C (dose: 800.0 mg/kg/injection, schedule: Q01DX009 (ip), vehicle: saline with Tween-80): 86 % of control

SMILES: c1ccc(C2=C([P+](c3ccccc3)(c3ccccc3)c3ccccc3)CCO2)cc1
- T/C [12]: 116 % of control
- T/C [13]: 105 % of control

SMILES: BrCC(Br)CBr
- T/C [4]: 92 % of control
- T/C [5]: 90 % of control
- T/C [6]: 90 % of control

SMILES: Cc1ccc2nc(-c3cc(Br)ccc3O)c(-c3cc(Br)ccc3O)nc2c1
- T/C [3]: 90 % of control
- T/C [11]: 88 % of control

SMILES: O=C(OCC(COC(=O)c1ccccc1)(COC(=O)c1ccccc1)COC(=O)c1ccccc1)c1ccccc1
- T/C [3]: 111 % of control
- T/C [11]: 102 % of control
- T/C (dose: 400.0 mg/kg/injection, schedule: Q01DX009 (ip), vehicle: Klucel (hydroxypropylcellulose) (HPC)): 92 % of control

SMILES: CC1CCC2N(C1)CC1C(C(O)C(O)C3(O)C1CC14OC5(O)C(O)CCC1(C)C5CC(O)C34)C2(C)O (configuration not stated)
- T/C (dose: 16.25 mg/kg/injection, schedule: Q01DX009 (ip), vehicle: saline): 100 % of control
- T/C (dose: 37.5 mg/kg/injection, schedule: Q01DX009 (ip), vehicle: saline): 102 % of control
- T/C (dose: 65.0 mg/kg/injection, schedule: Q01DX009 (ip), vehicle: saline): 100 % of control
- T/C (dose: 130.0 mg/kg/injection, schedule: Q01DX009 (ip), vehicle: saline): 104 % of control

SMILES: Cc1c2oc3c(C)ccc(C(=O)NC4C(=O)NC(C(C)C)C(=O)N5CCCC5C(=O)N(C)CC(=O)N(C)C(C(C)C)C(=O)OC4C)c3nc-2c(C(=O)NC2C(=O)NC(C(C)C)C(=O)N3CCCC3C(=O)N(C)CC(=O)N(C)C(C(C)C)C(=O)OC2C)c(N)c1=O (configuration not stated) (I: TVP[Sar][NMeV] / II: TVP[Sar][NMeV]; ester I:1-I:C, II:1-II:C; linker I:N-II:N via Actinocin(9to1); configuration not given here)
- T/C (dose: 0.06 mg/kg/injection, schedule: Q01DX009 (ip), vehicle: saline): 165 % of control
- T/C (dose: 0.12 mg/kg/injection, schedule: Q01DX009 (ip), vehicle: saline): 177 % of control and 180 % of control

SMILES: O=S(=O)(CCCl)c1ccc2ccccc2c1
- T/C [9]: 100 % of control
- T/C [10]: 104 % of control
- T/C [1]: 106 % of control
- T/C [2]: 104 % of control

SMILES: Oc1ccc2ccc3[nH]cnc3c2c1
- T/C (dose: 50.0 mg/kg/injection, schedule: Q04DX003 (ip), vehicle: Klucel (hydroxypropylcellulose) (HPC)): 100 % of control
- T/C (dose: 100.0 mg/kg/injection, schedule: Q04DX003 (ip), vehicle: Klucel (hydroxypropylcellulose) (HPC)): 105 % of control

SMILES: NC(Cn1cc(N(CCCl)CCCl)c(=O)[nH]c1=O)C(=O)O (configuration not stated)
- T/C [12]: 104 % of control
- T/C (dose: 12.0 mg/kg/injection, schedule: Q01DX009 (ip), vehicle: saline): 115 % of control

SMILES: O=C(NO)c1ccncc1
- T/C (dose: 25.0 mg/kg/injection, schedule: Q01DX009 (ip), vehicle: water): 96 % of control
- T/C (dose: 50.0 mg/kg/injection, schedule: Q01DX009 (ip), vehicle: water): 106 % of control and 111 % of control
- T/C (dose: 100.0 mg/kg/injection, schedule: Q01DX009 (ip), vehicle: water): 93 % of control and 105 % of control
- T/C (dose: 200.0 mg/kg/injection, schedule: Q01DX009 (ip), vehicle: water): 100 % of control
- T/C (dose: 300.0 mg/kg/injection, schedule: Q01DX009 (ip), vehicle: water): 93 % of control
- T/C (dose: 400.0 mg/kg/injection, schedule: Q01DX009 (ip), vehicle: water): 100 % of control
- T/C (dose: 600.0 mg/kg/injection, schedule: Q01DX009 (ip), vehicle: water): 105 % of control and 107 % of control
- T/C (dose: 700.0 mg/kg/injection, schedule: Q01DX009 (ip), vehicle: water): 100 % of control

SMILES: O=C1C(=O)c2ccccc2C(O)=C1CCCc1ccc(OCc2ccccc2)cc1
- T/C (dose: 5.0 mg/kg/injection, schedule: Q01DX009 (ip), vehicle: saline with Tween-80): 101 % of control
- T/C (dose: 10.0 mg/kg/injection, schedule: Q01DX009 (ip), vehicle: saline with Tween-80): 100 % of control
- T/C (dose: 20.0 mg/kg/injection, schedule: Q01DX009 (ip), vehicle: saline with Tween-80): 103 % of control

SMILES: COc1cc(/C=C/[N+](=O)[O-])c([N+](=O)[O-])cc1OC
- T/C [13]: 102 % of control
- T/C (dose: 12.5 mg/kg/injection, schedule: Q01DX009 (ip), vehicle: saline): 90 % of control
- T/C (dose: 25.0 mg/kg/injection, schedule: Q01DX009 (ip), vehicle: saline): 92 % of control

SMILES: N#CCc1c(Cl)ccc(Cl)c1Cl
- T/C [9]: 104 % of control
- T/C [10]: 99 % of control
- T/C [1]: 95 % of control
- T/C [2]: 107 % of control
